# Patent US12018021B2 (UCB Biopharma SRL, priority 2018, dated 2024)
# Biological target: IgE-Tb / sFcεRIα-Y131A-AF488 (Homo sapiens, UniProt P01854, N146Q/N252Q)
# Assay: IgE-Tb / sFcεRIα-Y131A-AF488 FRET assay (protocol for examples 234 to 501)
# Assay type: binding
# Conditions: examples 234 to 501: compound with IgE-Tb 30 minutes before sFcεRIα-Y131A-AF488, incubated 18 hours at room temperature; read-out: Y131A FRET IC50 range
# Method: For examples 234 to 501, the assay was conducted according to the following: Each assay reaction was conducted in a volume of 25 μl in a 384-well half-volume plate. 10 point compound serial dilutions (3-fold) were generated in DMSO at a concentration of ×50 that of the final assay concentration (FAC). Compound solutions were then prepared by diluting 10-fold in assay buffer. For the assay, 5l of diluted compound was added to 10 μl of IgE-Tb and incubated for 30 minutes before the addition of 10 μ[…]. FRET reagents FACs were 5 nM IgE-Tb, 25 nM […]. Usually the top FAC of compound in the assay was 10 μM. The final DMSO concentration was 2%. […] The maximum FRET signal (MAX) was measured in wells containing FRET reagents but no compound. The assay was incubated for 18 hours at room temperature, protected from light and evaporation, and with gentle agitation. Measurement of FRET for each well was carried out by exciting at 337 nm and measuring emission at 490/520 nm using a PHERAstar FSX plate reader (BMG Labtech). FRET ratio was calculated as follows: Emission at 520/7Emission at 490×1000. The FRET ratio was used for the data analysis. […] Z' above 0.5 was considered a good assay. Background signal (MIN) was subtracted from all wells. […] Percent inhibition was plotted against compound concentration. IC50 values for each compound were determined using four parameter logistic fit model using the XLFIT5 software package.
# Chain of IgE-Tb / sFcεRIα-Y131A-AF488 (P01854 whole entry N146Q/N252Q): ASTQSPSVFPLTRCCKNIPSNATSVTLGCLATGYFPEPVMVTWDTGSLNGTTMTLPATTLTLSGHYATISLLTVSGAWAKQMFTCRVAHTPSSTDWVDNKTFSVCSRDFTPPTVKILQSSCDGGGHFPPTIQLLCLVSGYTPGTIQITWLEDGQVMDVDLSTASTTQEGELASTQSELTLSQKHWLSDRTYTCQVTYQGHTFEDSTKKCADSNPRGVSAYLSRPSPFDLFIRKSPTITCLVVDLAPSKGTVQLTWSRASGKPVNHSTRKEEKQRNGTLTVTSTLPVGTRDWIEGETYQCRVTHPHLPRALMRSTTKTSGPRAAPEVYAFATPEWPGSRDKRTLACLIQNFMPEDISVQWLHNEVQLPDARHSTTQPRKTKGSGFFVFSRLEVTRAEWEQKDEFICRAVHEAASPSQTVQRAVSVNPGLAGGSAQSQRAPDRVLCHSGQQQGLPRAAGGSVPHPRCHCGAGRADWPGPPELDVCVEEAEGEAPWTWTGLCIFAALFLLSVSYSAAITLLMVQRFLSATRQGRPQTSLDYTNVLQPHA
row,Compound,IC50 [µM]
1,"CSc1cccc(Nc2nncn2[C@H]2CCc3sc(NC(=O)C4CC4)c(C(=O)NCC4CC4)c3C2)c1 [Example 249, (5S)-2-(cyclopropanecarbonylamino)-N-(cyclopropylmethyl)-5-[3-(3-methylsulfanylanilino)-1,2,4-triazol-4-yl]-4,5,6,7-tetrahydrobenzothiophene-3-carboxamide]",< 1
2,"Cc1nc(Cl)ccc1Nc1nncn1[C@H]1CCc2sc(NC(=O)C3CC3)c(C(=O)NCC3CC3)c2C1 [Example 302, (5S)-5-[3-[(6-chloro-2-methyl-3-pyridyl)amino]-1,2,4-triazol-4-yl]-2-(cyclopropanecarbonylamino)-N-(cyclopropylmethyl)-4,5,6,7-tetrahydrobenzothiophene-3-carboxamide]",< 1
3,"Cn1nc(OC(F)F)cc1Nc1nncn1[C@H]1CCc2sc(NC(=O)C3CC(F)(F)C3)c(C(=O)N[C@H]3C[C@H](F)C3)c2C1 [Example 492, (5S)-2-[(3,3-difluorocyclobutanecarbonyl)amino]-5-[3-[[5-(difluoromethoxy)-2-methylpyrazol-3-yl]amino]-1,2,4-triazol-4-yl]-N-(trans-3-fluorocyclobutyl)-4,5,6,7-tetrahydro-1-benzothiophene-3-carboxamide]",< 1
4,"Cn1nc(C(F)F)cc1Nc1nncn1[C@H]1CCc2sc(NC(=O)[C@H]3CC34CC4)c(C(=O)NC[C@H]3C[C@H]3F)c2C1 [Example 412, (5S)-5-[3-[[5-(Difluoromethyl)-2-methylpyrazol-3-yl]amino]-1,2,4-triazol-4-yl]-N-[[(1R,2R)-2-fluorocyclopropyl]methyl]-2-[[(2S)-spiro[2.2]pentane-2-carbonyl]amino]-4,5,6,7-tetrahydro-1-benzothiophene-3-carboxamide]",< 1
5,"Cn1nc(C(F)(F)F)cc1Nc1nncn1[C@H]1CCc2sc(NC(=O)[C@H]3C[C@H]3F)c(C(=O)NC[C@@H]3CC3(F)F)c2C1 (single isomer, unassigned) [Example 398]",< 1
6,"Cn1nc(C(F)F)cc1Nc1nncn1[C@H]1CCc2sc(NC(=O)C3CC3)c(C(=O)NCC3CC34CC4)c2C1 (mixture of isomers) [Example 384, (5S)-2-(cyclopropanecarbonylamino)-5-[3-[[5-(difluoromethyl)-2-methylpyrazol-3-yl]amino]-1,2,4-triazol-4-yl]-N-(spiro[2.2]pentan-2-ylmethyl)-4,5,6,7-tetrahydro-1-benzothiophene-3-carboxamide]",< 1
7,"Cn1nc(C(F)F)cc1Nc1nncn1[C@H]1CCc2sc(NC(=O)C3CC3)c(C(=O)N[C@H]3C[C@@H](F)C3)c2C1 [Example 388, (5S)-2-(cyclopropanecarbonylamino)-5-[3-[[5-(difluoromethyl)-2-methylpyrazol-3-yl]amino]-1,2,4-triazol-4-yl]-N-(cis-3-fluorocyclobutyl)-4,5,6,7-tetrahydro-1-benzothiophene-3-carboxamide]",< 1
8,"Cn1nc(OC(F)F)cc1Nc1nncn1[C@H]1CCc2sc(NC(=O)C3CC3)c(C(=O)NCC3CC3)c2C1 [Example 351, (5S)-2-(cyclopropanecarbonylamino)-N-(cyclopropylmethyl)-5-[3-[[5-(difluoromethoxy)-2-methylpyrazol-3-yl]amino]-1,2,4-triazol-4-yl]-4,5,6,7-tetrahydro-1-benzothiophene-3-carboxamide]",< 1
9,"COc1cc(Nc2nncn2[C@H]2CCc3sc(NC(=O)[C@H]4C[C@@H]4C)c(C(=O)NC[C@H]4C[C@@H]4F)c3C2)n(C)n1 [Example 466, (5S)—N-[[(1R,2S)-2-fluorocyclopropyl]methyl]-5-[3-[(5-methoxy-2-methylpyrazol-3-yl)amino]-1,2,4-triazol-4-yl]-2-[[(1S,2S)-2-methylcyclopropanecarbonyl]amino]-4,5,6,7-tetrahydro-1-benzothiophene-3-carboxamide]",< 1
10,"Cn1nc(OC(F)F)cc1Nc1nncn1[C@H]1CCc2sc(NC(=O)C3CC3)c(C(=O)NCC3CC(F)(F)C3)c2C1 [Example 446, (5S)-2-(cyclopropanecarbonylamino)-N-[(3,3-difluorocyclobutyl)methyl]-5-[3-[[5-(difluoromethoxy)-2-methylpyrazol-3-yl]amino]-1,2,4-triazol-4-yl]-4,5,6,7-tetrahydro-1-benzothiophene-3-carboxamide]",< 1
11,"Cn1ccc(Nc2nncn2[C@H]2CCc3sc(NC(=O)C4CC4)c(C(=O)NCC4CC4)c3C2)cc1=O [Example 301, (5S)-2-(cyclopropanecarbonylamino)-N-(cyclopropylmethyl)-5-[3-[(1-methyl-2-oxo-4-pyridyl)amino]-1,2,4-triazol-4-yl]-4,5,6,7-tetrahydrobenzothiophene-3-carboxamide]",< 1
12,"C[S@](=N)(=O)c1cccc(Nc2nncn2[C@H]2CCc3sc(NC(=O)C4CC4)c(C(=O)NCC4CC4)c3C2)c1 (single isomer, unassigned) [Example 253]",< 1
13,"CC1CC1CNC(=O)c1c(NC(=O)C2CC2F)sc2c1CC(n1cnnc1Nc1cc(C(F)(F)F)nn1C)CC2 [Example 390, (5S)-2-[[(1R,2R)-2-fluorocyclopropanecarbonyl]amino]-N-[[1RS,2RS)-2-methylcyclopropyl]methyl]-5-[3-[[2-methyl-5-(trifluoromethyl)pyrazol-3-yl]amino]-1,2,4-triazol-4-yl]-4,5,6,7-tetrahydro-1-benzothiophene-3-carboxamide (cis)]",< 1
14,"Cc1c(Nc2nncn2[C@H]2CCc3sc(NC(=O)C4CC4)c(C(=O)NCC4CC4)c3C2)cccc1[S@](C)(=N)=O (single isomer, unassigned) [Example 237]",< 1
15,"Cn1nc(C(F)F)cc1Nc1nncn1[C@H]1CCc2sc(NC(=O)C3CC3)c(C(=O)N[C@H]3C[C@H](F)C3)c2C1 [Example 373, (5S)-2-(cyclopropanecarbonylamino)-5-[3-[[5-(difluoromethyl)-2-methylpyrazol-3-yl]amino]-1,2,4-triazol-4-yl]-N-(trans-3-fluorocyclobutyl)-4,5,6,7-tetrahydro-1-benzothiophene-3-carboxamide]",< 1
16,"Cn1nc(OC(F)F)cc1Nc1nncn1[C@H]1CCc2sc(NC(=O)C3CC3)c(C(=O)NC[C@H]3C[C@H]3F)c2C1 (mixture of isomers) [Example 454, (5S)-2-(cyclopropanecarbonylamino)-5-[3-[[5-(difluoromethoxy)-2-methylpyrazol-3-yl]amino]-1,2,4-triazol-4-yl]-N-[[(1RS,2RS)-2-fluorocyclopropyl]methyl]-4,5,6,7-tetrahydro-1-benzothiophene-3-carboxamide]",< 1
17,"Cn1nncc1Nc1nncn1[C@H]1CCc2sc(NC(=O)C3CC3)c(C(=O)NCC3CC3)c2C1 [Example 434, (5S)-2-(cyclopropanecarbonylamino)-N-(cyclopropylmethyl)-5-[3-[(3-methyltriazol-4-yl)amino]-1,2,4-triazol-4-yl]-4,5,6,7-tetrahydrobenzothiophene-3-carboxamide]",< 1
18,"Cn1nc(C(F)F)cc1Nc1nncn1[C@H]1CCc2sc(NC(=O)[C@H]3CC34CC4)c(C(=O)NC[C@H]3C[C@H](F)C3)c2C1 [Example 404, (5S)-5-[3-[[5-(Difluoromethyl)-2-methylpyrazol-3-yl]amino]-1,2,4-triazol-4-yl]-N-[trans-(3-fluorocyclobutyl)methyl]-2-[[(2S)-spiro[2.2]pentane-2-carbonyl]amino]-4,5,6,7-tetrahydro-1-benzothiophene-3-carboxamide]",< 1
19,"C[C@@H]1C[C@H]1C(=O)Nc1sc2c(c1C(=O)NCC1CC1)C[C@@H](n1cnnc1Nc1cc(C(F)F)nn1C)CC2 (relative stereo) [Example 370, (5S)—N-(cyclopropylmethyl)-5-[3-[[5-(difluoromethyl)-2-methylpyrazol-3-yl]amino]-1,2,4-triazol-4-yl]-2-[[(1R*,2R*)-2-methylcyclopropanecarbonyl]amino]-4,5,6,7-tetrahydro-1-benzothiophene-3-carboxamide (* or S)]",< 1
20,"Cn1nc(OC(F)F)cc1Nc1nncn1[C@H]1CCc2sc(NC(=O)C3CC3)c(C(=O)NCC3CCC3F)c2C1 (stereo partly drawn) [Example 457, (5S)-2-(cyclopropanecarbonylamino)-5-[3-[[5-(difluoromethoxy)-2-methylpyrazol-3-yl]amino]-1,2,4-triazol-4-yl]-N-[(2-fluorocyclobutyl)methyl]-4,5,6,7-tetrahydro-1-benzothiophene-3-carboxamide]",< 1
21,"Cn1nc(C(F)F)cc1Nc1nncn1[C@H]1CCc2sc(NC(=O)[C@@H]3CC3(F)F)c(C(=O)NC[C@@H]3C[C@@H]3F)c2C1 (relative stereo) [Example 284, (5S)-2-[[(1S*)-2,2-difluorocyclopropanecarbonyl]amino]-5-[3-[[5-(difluoromethyl)-2-methyl-pyrazol-3-yl]amino]-1,2,4-triazol-4-yl]-N-[[(1S,2S)-2-fluorocyclopropyl]methyl]-4,5,6,7-tetrahydrobenzothiophene-3-carboxamide [* or R]]",< 1
